Structures can show the parent of a compound that is named as a salt.

The test system of one series is HT29. The conditions noted are these: 72 h, relative to DMSO, 10 µM, Relative cell viability (%). Summed up: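 HT29 viability used WST-1 reduction (2 h, 37 °C, A450) after 72 h of treatment; screening compounds were tested singly at 10 µM, with dimethyl sulfoxide as the comparison.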
With `CN1CCN(c2ccc3nc(-c4c(N)c5c(F)cccc5[nH]c4=O)[nH]c3c2)CC1` [Dovitinib (TKI258) Lactate], the “Relative cell viability (%)” value stood at 3.419%.

Consider `N#CC[C@H](C1CCCC1)n1cc(-c2ncnc3[nH]ccc23)cn1` [Ruxolitinib (INCB018424)], for which the “Relative cell viability (%)” value is 77.41%.

For the molecule `CCN(C)C(=O)Oc1cccc([C@H](C)N(C)C)c1` [Rivastigmine], the “Relative cell viability (%)” value came to 88.03%.

The same series, now with this note: 72 h, relative to DMSO; 10 µM.
Take `CCCC(=O)OCOC(=O)C1=C(C)NC(C)=C(C(=O)OC)C1c1cccc(Cl)c1Cl` (centres unmarked) [Clevidipine Butyrate]: the “Relative cell viability (%)” value is reported as 112%.

For the molecule `CCN1CCN(C(=O)N[C@@H](C(=O)N[C@@H]2C(=O)N3[C@@H]2SC(C)(C)[C@@H]3C(=O)O)c2ccccc2)C(=O)C1=O` [Piperacillin Sodium], the “Relative cell viability (%)” value stood at 73.94%.

For `CCOc1nc2cccc(C(=O)OCc3oc(=O)oc3C)c2n1Cc1ccc(-c2ccccc2-c2noc(=O)[nH]2)cc1` [Azilsartan Medoxomil], the “Relative cell viability (%)” value is reported as 116%.

With `CC(C)(C)NCC(O)COc1cccc2c1CCC(=O)N2` (centres unmarked) [Carteolol HCl], the “Relative cell viability (%)” value stood at 86.67%.

Take `O=C(C[S+]([O-])Cc1ccco1)NC/C=C\COc1cc(CN2CCCCC2)ccn1` (centres unmarked) [Lafutidine]: the “Relative cell viability (%)” value is recorded as 119.6%.

In the case of `Cn1c(COP(=O)(NCCBr)NCCBr)cnc1[N+](=O)[O-]` [TH-302], the “Relative cell viability (%)” value amounted to 83.98%.

Turning to `CCCCNC(=O)NS(=O)(=O)c1ccc(C)cc1` [Tolbutamide], the “Relative cell viability (%)” value stood at 106.1%.

As to `CCCCCCCCCCCCCCCC(=O)O[C@@H]1[C@@H](O)[C@@H](O)[C@@H]([C@H](NC(=O)[C@@H]2C[C@@H](CCC)CN2C)[C@H](C)Cl)O[C@@H]1SC` [Clindamycin palmitate HCl], the “Relative cell viability (%)” value stood at 40.29%.

As for `CC1CNc2c(cccc2S(=O)(=O)N[C@@H](CCCNC(=N)N)C(=O)N2CC[C@@H](C)C[C@@H]2C(=O)O)C1` (some centres unmarked) [Argatroban], the “Relative cell viability (%)” value is on record as 123.2%.

As for `CNC(=C[N+](=O)[O-])NCCSCc1csc(CN(C)C)n1` [Nizatidine], the “Relative cell viability (%)” value is given as 77.97%.

For the molecule `CNCCC(Oc1ccc(C(F)(F)F)cc1)c1ccccc1` (centres unmarked) [Fluoxetine HCl], the “Relative cell viability (%)” value is reported as 86.76%.

As to `CCCN[C@H]1CCc2nc(N)sc2C1` [Pramipexole dihydrochloride monohydrate], the “Relative cell viability (%)” value is 205.2%.

For `C#CCN[C@@H]1CCc2ccccc21` [Rasagiline Mesylate], the “Relative cell viability (%)” value is reported as 103.1%.

For the molecule `Cc1ncc([N+](=O)[O-])n1CCO` [Metronidazole], the “Relative cell viability (%)” value is on record as 113.4%.

On to `CCOC(=O)[C@H](CCc1ccccc1)N[C@@H](C)C(=O)N1Cc2cc(OC)c(OC)cc2C[C@H]1C(=O)O` [Moexipril HCl], for which the “Relative cell viability (%)” value is reported as 110.2%.

As to `C[C@@H]1CN(c2c(F)c(N)c3c(=O)c(C(=O)O)cn(C4CC4)c3c2F)C[C@H](C)N1` [Sparfloxacin], the “Relative cell viability (%)” value is 75.42%.

Consider `Nc1c(CC(=O)O)cccc1C(=O)c1ccc(Br)cc1` [Bromfenac Sodium], for which the “Relative cell viability (%)” value is given as 78.48%.

Take `COc1cc([C@H]2Oc3cc([C@H]4Oc5cc(O)cc(O)c5C(=O)[C@@H]4O)ccc3O[C@@H]2CO)ccc1O` [Silibinin]: the “Relative cell viability (%)” value worked out at 119.6%.

Regarding `CC(/C=C1\SC(=S)N(CC(=O)O)C1=O)=C\c1ccccc1` [Epalrestat], the “Relative cell viability (%)” value is 135.7%.

Consider `Nc1cc(C(Cl)=C(Cl)Cl)c(S(N)(=O)=O)cc1S(N)(=O)=O` [Clorsulon], for which the “Relative cell viability (%)” value is recorded as 49.03%.

For `CC(C)c1nc(N(C)S(C)(=O)=O)nc(-c2ccc(F)cc2)c1/C=C/[C@@H](O)C[C@@H](O)CC(=O)O` [Rosuvastatin Calcium], the “Relative cell viability (%)” value is 120.2%.

Take `CCOC(=O)C1=C[C@]2(CC)CCCN3CCc4c(n1c1ccccc41)[C@@H]32` [Vinpocetine]: the “Relative cell viability (%)” value is on record as 107.3%.

`Cc1cccc(C)c1OCC(C)N` (centres unmarked) [Mexiletine HCl]: the “Relative cell viability (%)” value was 84.85%.

With `CCCc1cc(C(N)=S)ccn1` [Protionamide], the “Relative cell viability (%)” value is 123.7%.

`CCCOc1ccc(C(=O)OCCN(CC)CC)cc1N` [Proparacaine HCl]: the “Relative cell viability (%)” value was determined as 89.41%.

Regarding `N[C@@H](Cc1cc(I)c(Oc2ccc(O)c(I)c2)c(I)c1)C(=O)O` [Liothyronine Sodium], the “Relative cell viability (%)” value was found to be 85.76%.

For the molecule `CN1CCN2c3ccccc3Cc3ccccc3C2C1` (centres unmarked) [Mianserin HCl], the “Relative cell viability (%)” value amounted to 57.17%.

`Cc1ccccc1C(=O)Nc1ccc(C(=O)N2CCCC(O)c3cc(Cl)ccc32)c(C)c1` (centres unmarked) [Tolvaptan]: the “Relative cell viability (%)” value was 54.85%.

Consider `Cc1c(Cl)cccc1Nc1ccccc1C(=O)O` [Tolfenamic Acid], for which the “Relative cell viability (%)” value was 166.2%.

Regarding `Cn1ncc(Cl)c1-c1cc(C(=O)N[C@H](CN)Cc2ccc(F)c(F)c2)oc1Cl` [Uprosertib (GSK2141795)], the “Relative cell viability (%)” value was determined as 4.701%.

Turning to `Nc1nnc(-c2cccc(Cl)c2Cl)c(N)n1` [Lamotrigine], the “Relative cell viability (%)” value is on record as 100%.

On to `O=C(O)c1cccnc1` [Nicotinic Acid], for which the “Relative cell viability (%)” value is 70.34%.

Take `C=C1[C@H](CO)[C@@H](O)C[C@@H]1n1cnc2c(=O)[nH]c(N)nc21` [Entecavir Hydrate]: the “Relative cell viability (%)” value stood at 99.22%.

For `O=C1CCc2ccc(OCCCCN3CCN(c4cccc(Cl)c4Cl)CC3)cc2N1` [aripiprazole], the “Relative cell viability (%)” value came out at 49.03%.

As for `C=CC[C@@H]1/C=C(\C)C[C@H](C)C[C@H](OC)[C@H]2O[C@@](O)(C(=O)C(=O)N3CCCC[C@H]3C(=O)O[C@H](/C(C)=C/[C@@H]3CC[C@@H](O)[C@H](OC)C3)[C@H](C)[C@@H](O)CC1=O)[C@H](C)C[C@@H]2OC` [Tacrolimus (FK506)], the “Relative cell viability (%)” value came out at 102.1%.

Consider `CCOC(=O)c1cncn1[C@H](C)c1ccccc1` [Etomidate], for which the “Relative cell viability (%)” value is on record as 60.28%.

As to `CN(C)[C@@H](CCOc1cccc2ccccc12)c1ccccc1` [Dapoxetine HCl], the “Relative cell viability (%)” value came out at 44.92%.

With `COC(=O)C1=C(C)NC(C)=C(C(=O)OCC(C)C)C1c1ccccc1[N+](=O)[O-]` (centres unmarked) [Nisoldipine], the “Relative cell viability (%)” value turned out to be 56.36%.

As for `Fc1ccc([C@@H]2CCNC[C@H]2COc2ccc3c(c2)OCO3)cc1` [Paroxetine HCl], the “Relative cell viability (%)” value stood at 19.9%.

Turning to `O=C(O)CSCC(=O)NC1CCSC1=O` (centres unmarked) [Erdosteine], the “Relative cell viability (%)” value is reported as 104.7%.

In the case of `COc1ccc2[nH]c([S+]([O-])Cc3ncc(C)c(OC)c3C)nc2c1` (centres unmarked) [Omeprazole], the “Relative cell viability (%)” value is on record as 88.32%.

Take `CCC1=C[C@@H]2CN(C1)Cc1c([nH]c3ccccc13)[C@@](C(=O)OC)(c1cc3c(cc1OC)N(C)[C@H]1[C@@](O)(C(=O)OC)[C@H](OC(C)=O)[C@]4(CC)C=CCN5CC[C@]31[C@@H]54)C2` [Vinorelbine Tartrate]: the “Relative cell viability (%)” value was found to be 15.76%.

With `Cc1cccc(CN2CCN(C(c3ccccc3)c3ccc(Cl)cc3)CC2)c1` (centres unmarked) [Meclizine 2HCl], the “Relative cell viability (%)” value is 130.4%.

In the case of `C[N+](C)(C)CC(O)CC(=O)[O-]` (racemic) [DL-Carnitine HCl], the “Relative cell viability (%)” value stood at 125.5%.

On to `CC(C)C(=O)Nc1ccc([N+](=O)[O-])c(C(F)(F)F)c1` [Flutamide], for which the “Relative cell viability (%)” value was determined as 100.9%.

As to `COc1cc2c(cc1OC)CN(CCc1ccc(NC(=O)c3cccc4c(=O)c5cccc(OC)c5[nH]c34)cc1)CC2` [Elacridar (GF120918)], the “Relative cell viability (%)” value is 48.29%.

For the molecule `C=CCc1cc(OC)c(O)c(C(=O)NCCO)c1` [Alibendol], the “Relative cell viability (%)” value is on record as 149.2%.

For the molecule `CC[C@@H]1C(=O)N(C)c2cnc(Nc3ccc(C(=O)N[C@H]4CC[C@H](N5CCN(CC6CC6)CC5)CC4)cc3OC)nc2N1C(C)C` [Volasertib (BI 6727)], the “Relative cell viability (%)” value is on record as 88.41%.

For `COc1cc2ncnc(Nc3ccc(F)c(Cl)c3)c2cc1NC(=O)/C=C/CN1CCCCC1` [Dacomitinib (PF299804, PF299)], the “Relative cell viability (%)” value is listed as 11.17%.

For the molecule `C[C@H]1COc2c(N3CCN(C)CC3)c(F)cc3c(=O)c(C(=O)O)cn1c23` [Levofloxacin], the “Relative cell viability (%)” value is 124%.

For the molecule `CC1=C(/C=C/C(C)=C/C=C/C(C)=C\C(=O)O)C(C)(C)CCC1` [Isotretinoin], the “Relative cell viability (%)” value came to 60.28%.

For the molecule `COc1nc(N)nc2c1ncn2[C@@H]1O[C@H](CO)[C@@H](O)[C@@H]1O` [Nelarabine], the “Relative cell viability (%)” value was 86.76%.

In the case of `COC(=O)C1=C(C)NC(C)=C(C(=O)OCCN(C)Cc2ccccc2)C1c1cccc([N+](=O)[O-])c1` (centres unmarked) [Nicardipine HCl], the “Relative cell viability (%)” value amounted to 83.03%.

For `Cc1cc(O)ccc1Cl` [Chlorocresol], the “Relative cell viability (%)” value came to 65.76%.

With `CCCC1O[C@@H]2C[C@H]3[C@@H]4CCC5=CC(=O)C=C[C@]5(C)[C@H]4[C@@H](O)C[C@]3(C)[C@]2(C(=O)CO)O1` (some centres unmarked) [Budesonide], the “Relative cell viability (%)” value is reported as 83.64%.

With `NCCS` [Cysteamine HCl], the “Relative cell viability (%)” value is recorded as 89.39%.

Take `Nc1nc(Cl)nc2c1ncn2[C@@H]1O[C@H](CO)[C@@H](O)[C@@H]1F` [Clofarabine]: the “Relative cell viability (%)” value came out at 43.15%.

Consider `N#C[C@@H]1C[C@@H]2C[C@@H]2N1C(=O)[C@@H](N)C12CC3CC(CC(O)(C3)C1)C2` [Saxagliptin hydrate], for which the “Relative cell viability (%)” value was 117.5%.

Regarding `CS(=O)(=O)c1ccc([C@@H](O)[C@@H](CF)NC(=O)C(Cl)Cl)cc1` [Florfenicol], the “Relative cell viability (%)” value is given as 85.76%.

As to `FC(F)(F)c1ccc(/C=C/c2nc(COc3ccc(CCCCn4ccnn4)cc3)co2)cc1` [Mubritinib (TAK 165)], the “Relative cell viability (%)” value worked out at 116.7%.

Take `CCCCCCCCCCCC[N+](C)(C)CCOc1ccccc1` [Domiphen Bromide]: the “Relative cell viability (%)” value worked out at 82.12%.

Still in this series, the particulars now being: ht29 cells, 72 h, 10 µM.
On to `C[C@]12Cc3c[nH]nc3C[C@@H]1CC[C@@H]1[C@@H]2CC[C@@]2(C)[C@H]1CC[C@]2(C)O` [Stanozolol], for which the “Relative cell viability (%)” value is listed as 83.05%.

The values are drawn from publication PMC11672294, “The Antipsychotic Drug Aripiprazole Suppresses Colorectal Cancer by Targeting LAMP2a to Induce RNH1/miR‐99a/mTOR‐Mediated Autophagy and Apoptosis” (Advanced Science, 2024).
